Reference: patent publication US20100034772A1, “COMPOSITIONS AND METHODS FOR IMMUNOTHERAPY” (priority 2006, published 2010)
“Also recorded” adds a separate entry of the source.

Assays:
[1] = system: Ge-con and Ge-Hsp70 melanoma cells; assay: 51Chromium release assay: lysis of SAHA-treated Ge-con and Ge-Hsp70 cells by LAK cells; assay type: cell-based, human; conditions: target cells 10 μM SAHA 20 h; LAK: PBMC 4 days IL-2 100 U/ml; n=4; p=0.0030, three-way ANOVA; FIG. 9B
Method: (§1) The human melanoma cell line Ge, the Ge-Hsp70 and Ge-con sublines derived therefrom (clones Ge-Hsp70-A, Ge-Hsp70-C, Ge-TCR-C, and Ge-GFP-B) (15), mouse fibroblast L cells, and transfected L cells were maintained in NaHCO3-buffered DMEM supplemented with 10% FCS (Biochrom, Berlin, Germany), 2 mM L-glutamine, 1 mM sodium pyruvate, 50 μM 2-mercaptoethanol and antibiotics (100 U/ml penicillin, 100 μg/ml streptomycin) (Sigma) in Petri dishes for tissue culture (Sarstedt, Nümbrecht, Germany) at 37° C. in a 10% CO2 atmosphere. Human erythroleukemia K562 and mouse lymphoma YAC-1 cells were maintained under the same conditions in Petri dishes for suspension cells (Sarstedt). […] MICA mRNA expression was analyzed by Northern blot and cell surface expression by flow cytometry. […]
(§2) Target cells were labeled by incubating 1×10^6 cells in 200 μl HEPES-buffered DMEM containing 100 μl FCS and 50 μCi Na2^51CrO4 (ICN Biomedicals, Eschwege, Germany) for 1 h at 37° C. and washed three times with HEPES-buffered DMEM. […] Spontaneous release was determined by incubation of target cells in the absence of effector cells. […]

[2] = system: NK cells / Ge-con target cells; assay: 51Chromium release assay: lysis of Ge-con melanoma target cells by isolated NK cells; assay type: cell-based, human
Excerpt: Human effector cells were obtained from the peripheral blood of healthy voluntary laboratory co-workers by density gradient centrifugation on Biocoll separating solution (Biochrom). NK cells were isolated from peripheral blood mononuclear cells (PBMC) by magnetic cell sorting (MACS) using a negative selection kit (NK cell isolation Kit II, 130-091-152; Miltenyi Biotec, Bergisch-Gladbach, Germany). The kit contains a cocktail of antibodies against CD3, CD4, CD14, CD15, CD19, CD36, CD123, and CD235a. […] NK cells enriched by MACS were cultured in 24-well plates for tissue culture (Sarstedt) at a density of 2×10^6 cells/ml. To some cultures 2 μg/ml recombinant HSP70, recombinant HSC70, or the HSP70-derived peptide TKD (Bachem, Bubendorf, Switzerland) were added.
Target cells were labeled by incubating 1×10^6 cells in 200 μl HEPES-buffered DMEM containing 100 μl FCS and 50 μCi Na2^51CrO4 (ICN Biomedicals, Eschwege, Germany) for 1 h at 37° C. and washed three times with HEPES-buffered DMEM. […] Spontaneous release was determined by incubation of target cells in the absence of effector cells. The micro titer plates were centrifuged for 5 min at 40×g and incubated at 37° C. for 4 h before being centrifuged again and supernatant and sediment were separately taken to determine radioactivity in each well using a Wallac MicroBeta Trilux counter (PerkinElmer Life Sciences, Köln, Germany).

[3] = system: Ge-con and Ge-Hsp70 melanoma cells; assay: Flow cytometry of cell surface MICA/B, NKG2D ligands and HSP70 on Ge melanoma cells after histone deacetylase inhibitor; assay type: cell-based, human; conditions: FIG. 9A; for HSP70 cell surface expression on Ge cells after histone deacetylase inhibitor treatment: SAHA 10 μM, 20 h, mAb RPN 1197; for MICA/B cell surface expression on Ge-con and Ge-Hsp70 cells: histone deacetylase inhibitor treatment (SAHA 10 μM, 20 h)
Method: (§3) The human melanoma cell line Ge, the Ge-Hsp70 and Ge-con sublines derived therefrom (clones Ge-Hsp70-A, Ge-Hsp70-C, Ge-TCR-C, and Ge-GFP-B) (15), mouse fibroblast L cells, and transfected L cells were maintained in NaHCO3-buffered DMEM supplemented with 10% FCS (Biochrom, Berlin, Germany), 2 mM L-glutamine, 1 mM sodium pyruvate, 50 μM 2-mercaptoethanol and antibiotics (100 U/ml penicillin, 100 μg/ml streptomycin) (Sigma) in Petri dishes for tissue culture (Sarstedt, Nümbrecht, Germany) at 37° C. in a 10% CO2 atmosphere. Human erythroleukemia K562 and mouse lymphoma YAC-1 cells were maintained under the same conditions in Petri dishes for suspension cells (Sarstedt). […] L cells were co-transfected by electroporation with 30 μg of the cosmid A158 (25) containing the MIC3 gene of the rhesus macaque (Macaca mulatta) which is orthologous to human MICA, and with 1 μg of the dsRED vector (Clontech, Mountain View, USA), which confers resistance to geneticin (Invitrogen, Karlsruhe, Germany). After selection with geniticin (1 mg/ml) stable clones were established by limiting dilution, tested for presence of the cosmid by PCR using specific primers (5′-GCT TGC ATT CCC TCC AGG A-3′ (SEQ ID NO: 1) and 5′-TGGACCCTCTGCAGCTGATGT-3′ (SEQ ID NO: 2), length of specific PCR product 1396 bp). MICA mRNA expression was analyzed by Northern blot and cell surface expression by flow cytometry. Four independent clones were tested as target cells for human and rhesus lymphokine-activated killer (LAK) cells with similar results, confirming that MICA expression confers susceptibility to LAK cells. Clone K43 (L-MICA) was selected for the further studies.
Flow cytometry was done on a FACScan flow cytometer (Becton Dickinson, Heidelberg, Germany) using CellQuest software. Expression of intracellular HSP70, T cell receptor (TCR) β, and green fluorescent protein (GFP) in Ge-Hsp70 and Ge-con clones, respectively, was controlled regularly by flow cytometry as described before (15). Cell surface expression of HSP70 was examined on propidium iodide negative cells by a monoclonal antibody (mAb) (RPN 1197, mouse IgG1, multimmune, Regensburg, Germany) that has been reported to detect HSP70 on the plasma membrane (28). MICA/B cell surface expression was determined with the mAb BAMO1 reacting with human MICA and MICB (mouse IgG1, Immatics, Tübingen, Germany). […] Intracellular granzyme B expression was analyzed with the mAb B18.1 (mouse IgG1, Alexis Biochemicals, Grünberg, Germany) after permeabilization of the cells with 0.25% saponin as described before for HSP70 (15). […] The percentage of NK cells in the spleens of SCID mice was determined using the pan-NK cell marker DX5 (rat IgM, PE-conjugated, Caltag Laboratories, Hamburg, Germany). […]

PBMC = assay: 51Chromium release assay: lysis of L-MICA / L / K562 target cells by human PBMC or LAK cells stimulated in vitro; assay type: cell-based; conditions: for lysis of L-MICA cells by IL-2 treated PBMC, additional stimulatory effect of recombinant protein: PBMC cultured 7 days with IL-2 (100 U/ml) plus 2 μg/ml protein, compared with IL-2 only, FIG. 7A
Method: as §3
(§4) Splenocytes from SCID mice were obtained using a Tenbroeck homogeniser and erythrocytes were removed by incubation for 5 min in lysis buffer (155 mM NH4Cl, 10 mM KHCO3, 0.1 mM EDTA, pH 7.4-7.8). Afterwards the cells were used either directly as cytotoxic effector cells or cultured for 24 h in DMEM with 10% FCS and 20% supematant from concanavalin A stimulated lymphocytes before being used in ^51Chromium release assays. Human effector cells were obtained from the peripheral blood of healthy voluntary laboratory co-workers by density gradient centrifugation on Biocoll separating solution (Biochrom). NK cells were isolated from peripheral blood mononuclear cells (PBMC) by magnetic cell sorting (MACS) using a negative selection kit (NK cell isolation Kit II, 130-091-152; Miltenyi Biotec, Bergisch-Gladbach, Germany). […]
as §2

NK cells [4] = assay: 51Chromium release assay: lysis of L-MICA target cells by MACS-isolated NK cells or NK cell depleted PBMC; assay type: cell-based, human
Method: as §1, §2

NK cells [5] = conditions: shown before (27); cited from earlier work
NK cells [6] = assay: Flow cytometry of NK cell markers and intracellular granzyme B after 5 d culture; assay type: cell-based, human; conditions: IL-2 100 U/ml, TKD 2 μg/ml
Method: as §4, with “Germany). The kit contains a cocktail of antibodies against CD3, CD4, CD14, CD15, CD19, CD36, CD123, and CD235a. To obtain LAK cells the PBMC were cultured for 4 to 7 days in 5-ml Petri dishes for tissue culture (Sarstedt) at a density of 5 to 10×10^6 cells/ml in DMEM supplemented with 100 U/ml IL-2 (Proleukin, Chiron, Amsterdam, Netherlands). NK cells enriched by MACS were cultured in 24-well plates for tissue culture (Sarstedt) at a density of 2×10^6 cells/ml. To some cultures 2 μg/ml recombinant HSP70, recombinant HSC70, or the HSP70-derived peptide TKD (Bachem, Bubendorf, Switzerland) were added.” for “Germany).”
Flow cytometry was done on a FACScan flow cytometer (Becton Dickinson, Heidelberg, Germany) using CellQuest software. […] MICA/B cell surface expression was determined with the mAb BAMO1 reacting with human MICA and MICB (mouse IgG1, Immatics, Tübingen, Germany). […] Intracellular granzyme B expression was analyzed with the mAb B18.1 (mouse IgG1, Alexis Biochemicals, Grünberg, Germany) after permeabilization of the cells with 0.25% saponin as described before for HSP70 (15). […] The percentage of NK cells in the spleens of SCID mice was determined using the pan-NK cell marker DX5 (rat IgM, PE-conjugated, Caltag Laboratories, Hamburg, Germany). […]

Compound: O=C(CCCCCCC(=O)Nc1ccccc1)NO [SAHA, suberoylanilide hydroxyamic acid]
- susceptibility of treated Ge-con and Ge-Hsp70 cells to lysis by LAK cells versus untreated cells [1]: significantly more susceptible to lysis by LAK cells than untreated cells; also recorded: lysed signifcantly better than untreated cells
- susceptibility of Ge target cells to NK cells after SAHA treatment ([2]; target cells 10 μM SAHA 20 h, p<0.0001, three-way ANOVA, effector:target 2.5:1 and 1.25:1): augmented their susceptibility to NK cells
- HSP70 cell surface expression on Ge cells after histone deacetylase inhibitor treatment [3]: not found
- MICA/B cell surface expression on Ge-con and Ge-Hsp70 cells [3]: induced

Compound: CC(/C=C/C(=O)NO)=C\[C@@H](C)C(=O)c1ccc(N(C)C)cc1 [trichostatin A]
- HSP70 cell surface expression on Ge cells after histone deacetylase inhibitor treatment [3]: not found
- MICA/B cell surface expression on Ge-con and Ge-Hsp70 cells [3]: induced

Compound: HSC70: His-tagged recombinant constitutively expressed HSC70 from the rat Hsc70 gene, produced in E. coli
- lysis of L-MICA cells by IL-2 treated PBMC, additional stimulatory effect of recombinant protein (PBMC): but not HSC70 was able to further activate PBMC to kill MICA expressing target cells

Compound: HSP70: His-tagged recombinant stress-inducible HSP70 protein derived from the rat Hsp70-1 gene, produced in E. coli
- capacity of LAK cells to kill L-MICA cells (PBMC; 7 days IL-2 (100 U/ml) plus HSP70 (2 μg/ml), tested in parallel with LPS (10 ng/ml), 6 experiments, p=0.0374, FIG. 7B): significantly increased
- lysis of L-MICA cells by IL-2 treated PBMC, additional stimulatory effect of recombinant protein (PBMC): further increased lysis of the L-MICA cells

Compound: TKDNNLLGRFELSG
- lysis of L-MICA cells by PBMC stimulated with IL-2 and TKD versus IL-2 only (PBMC; 7 days, IL-2 100 U/ml, TKD 2 μg/ml, p=0.0012, FIG. 7C): lysed L-MICA cells significantly better
- capability of NK cells to lyse Ge-con target cells after stimulation ([2]; NK cells 5 days IL-2 (100 U/ml) plus TKD (2 μg/ml) versus IL-2, TKD p=0.0055, three-way ANOVA, effector:target 2.5:1 and 1.25:1): increased their capability to lyse target cells
- killing of Ge-con target cells: combination of TKD treatment of NK cells and SAHA treatment of target cells ([2]; TKD 2 μg/ml plus IL-2 5 days, SAHA 10 μM 20 h, interaction p=0.0003, especially at lower effector:target ratios, FIG. 10B): acted synergistically
- killing of L-MICA cells by stimulated NK cell depleted PBMC (NK cells [4]; NK cell depleted PBMC, 5 days IL-2 (100 U/ml) or IL-2 plus TKD (2 μg/ml), effector:target ratios up to 200:1, FIG. 8B): did not result in a cell population that was able to kill L-MICA cells
- activity of the NK cells against L-MICA cells (NK cells [4]; NK cell enriched fraction, 5 days IL-2 (100 U/ml) plus TKD (2 μg/ml) versus IL-2, 7 experiments, p<0.0001, FIG. 8C): significantly improve
- ability to stimulate NK cells to lyse HSP70 cell surface positive target cells (NK cells [5]): equivalent to the full length HSP70
- mean fluorescence intensity of NKG2D and CD94, IL-2 and TKD versus IL-2 alone (NK cells [6]): no significant difference was detectable
- intracellular granzyme B expression, IL-2 plus TKD versus IL-2 alone (NK cells [6]; 5 experiments, FIG. 10D): tendency towards increased expression
- percentage of CD56 positive NK cells, IL-2 plus TKD versus IL-2 (NK cells [6]; FIG. 10C): no difference was observed
